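1) Cells in 96-well plates. 2) Compound, 48 h, 5 concentrations. 3) Linear interpolation between surrounding doses. 4) Unreached endpoint = highest concentration. GI50 = concentration required for 50% inhibition of growth.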 Activity calls are given as the source filed them. Cut-off read from the data, not from the text of the source: active = GI50 up to about 1.1 µM and inactive = higher.
Legend:
Assay in all cases: growth of human tumour cells (NCI), 48 h
[1] = system: DMS-114
[2] = system: DMS-273
[3] = system: HCC 2998
[4] = system: HOP-62
[5] = system: HT-29
[6] = system: LXFL 529
[7] = system: M19-MEL
[8] = system: MOLT-4
[9] = system: NCI-H226
[10] = system: NCI-H23
[11] = system: SNB-75
[12] = system: UACC-257
[13] = system: UACC-62
[14] = system: UO-31
[15] = system: XF498
[16] = system: 786-0

Measured: GI50

Cc1cccc(NC(=O)C(=O)C(C(=O)c2ccccc2F)C2OC(=O)c3ccccc32)c1Cl (stereo not given)
inactive: [1] 17.5 µM | [2] 24.7 µM | [3] 22.5 µM | [4] 37.4 µM | [5] 31.5 µM | [6] 24.3 µM | [7] 22.4 µM | [8] 30.3 µM | [9] 32.4 µM | [10] 24.2 µM | [11] 20.5 µM | [12] 51.4 µM | [13] 23.2 µM | [14] 37.2 µM | [15] 19.7 µM

CC1(c2ccc(F)cc2)C(C#N)C(=O)NC(=O)C1C#N (stereo not given)
inactive: [16] > 100 µM | [1] > 100 µM | [2] > 100 µM | [3] > 100 µM | [4] 75.2 µM | [5] > 100 µM | [6] > 100 µM | [7] > 100 µM | [8] > 100 µM | [9] > 100 µM | [10] > 100 µM | [11] 32.3 µM | [12] > 100 µM | [13] > 100 µM | [14] 83.8 µM | [15] > 100 µM

S=P1(Oc2ccccc2)NNP2(=NP(N3CC3)(N3CC3)=NP(N3CC3)(N3CC3)=N2)NN1 (stereo not given)
inactive: [16] > 100 µM | [1] > 100 µM | [2] 76.4 µM | [3] > 100 µM | [4] 49.4 µM | [5] > 100 µM | [6] > 100 µM | [7] > 100 µM | [8] 19.6 µM | [9] > 100 µM | [10] 41.9 µM | [11] 64.4 µM | [12] > 100 µM | [13] 98.4 µM | [14] > 100 µM | [15] > 100 µM

c1ccc(C2N=C(c3ccccn3)C(c3ccccn3)=NC2c2ccccc2)cc1 (stereo not given)
inactive: [16] > 100 µM | [1] > 100 µM | [2] > 100 µM | [3] > 100 µM | [4] 20 µM | [5] > 100 µM | [6] > 100 µM | [7] > 100 µM | [8] > 100 µM | [9] > 100 µM | [10] > 100 µM | [12] > 100 µM | [13] > 100 µM | [14] > 100 µM | [15] > 100 µM

c1ccc(N2CCN(CCCN3CCc4c([nH]c5ccccc45)C3c3cccnc3)CC2)cc1 (stereo not given)
inactive: [16] 33.9 µM | [1] > 100 µM | [2] > 47 µM | [3] 40.4 µM | [4] > 100 µM | [5] 22.9 µM | [6] > 74.5 µM | [7] > 92 µM | [8] 30.4 µM | [9] > 100 µM | [10] > 100 µM | [11] > 100 µM | [12] 24.6 µM | [13] > 100 µM | [14] > 100 µM | [15] 5.04 µM

O=c1n(Cc2ccccc2)c2ccccc2n1CC1CS1 (stereo not given)
inactive: [1] > 100 µM | [2] > 100 µM | [3] > 100 µM | [4] > 100 µM | [6] > 100 µM | [7] > 100 µM | [8] > 100 µM | [9] > 100 µM | [11] 58.6 µM | [13] > 100 µM | [14] > 100 µM | [15] > 100 µM

CC(=O)OCc1nnn2c1C(OC(C)=O)CC2 (stereo not given)
inactive: [16] > 100 µM | [1] > 100 µM | [2] > 100 µM | [3] > 100 µM | [5] > 100 µM | [6] > 100 µM | [7] > 100 µM | [8] > 100 µM | [9] > 100 µM | [10] > 100 µM | [11] 20.1 µM | [12] > 100 µM | [13] > 100 µM | [14] > 100 µM | [15] > 100 µM

C#CCOCn1cnc2ncnc(Cl)c21
inactive: [16] > 100 µM | [1] > 100 µM | [2] > 100 µM | [3] > 100 µM | [4] > 100 µM | [5] > 100 µM | [6] > 100 µM | [7] > 100 µM | [8] > 100 µM | [9] > 100 µM | [10] > 100 µM | [11] > 100 µM | [12] > 100 µM | [13] > 100 µM | [14] > 100 µM | [15] > 100 µM

O=C1NCCCC12CCCNC2=O
inactive: [16] > 100 µM | [1] > 100 µM | [2] > 100 µM | [3] > 100 µM | [4] > 100 µM | [5] > 100 µM | [6] > 100 µM | [7] > 100 µM | [8] > 100 µM | [9] > 100 µM | [10] > 100 µM | [12] > 100 µM | [14] > 100 µM | [15] > 100 µM

— ChEMBL document CHEMBL1201862, “PubChem BioAssay data set” (2004)
